Source: PubChem BioAssay (NCI)
Values joined by “and” are separate entries in the source; they are usually repeats but may differ in a detail not shown here. Equal entries are not always repeated.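 Grown in 96-well plates, cells were treated for 48 hours with each compound at five concentrations. Insufficient inhibition: endpoint recorded as highest concentration tested. Here, GI50 denotes the concentration required for 50% inhibition of growth. TGI: concentration producing complete growth inhibition.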

Tests used:
Assay in all cases: NCI anticancer screen, dose series, 48 h
OVCAR-5 ovarian = system: OVCAR-5 ovarian
UO-31 renal = system: UO-31 renal
COLO 205 colon = system: COLO 205 colon
A549 NSCLC = system: A549 NSCLC
OVCAR-8 ovarian = system: OVCAR-8 ovarian
SK-OV-3 ovarian = system: SK-OV-3 ovarian
NCI-H460 lung = system: NCI-H460 lung
ACHN renal = system: ACHN renal
SF-539 CNS = system: SF-539 CNS
UACC-257 melanoma = system: UACC-257 melanoma

Row | SMILES | GI50 (OVCAR-5 ovarian) [µM] | TGI (OVCAR-5 ovarian) | GI50 (UO-31 renal) [µM] | TGI (UO-31 renal) [µM] | GI50 (COLO 205 colon) [µM] | TGI (COLO 205 colon) | GI50 (A549 NSCLC) [µM] | TGI (A549 NSCLC) [µM] | GI50 (OVCAR-8 ovarian) [µM] | TGI (OVCAR-8 ovarian) | GI50 (SK-OV-3 ovarian) [µM] | TGI (SK-OV-3 ovarian) | GI50 (NCI-H460 lung) [µM] | TGI (NCI-H460 lung) [µM] | GI50 (ACHN renal) [µM] | TGI (ACHN renal) [µM] | GI50 (SF-539 CNS) [µM] | TGI (SF-539 CNS) | GI50 (UACC-257 melanoma) [µM] | TGI (UACC-257 melanoma) [µM]
1 | COC(=O)[C@]12CC[C@@H](C)[C@H](C)[C@@H]1C1=CC[C@@H]3[C@@]4(C)C(C=O)=C[C@@](C)(COS(C)(=O)=O)C4=CC[C@@]3(C)[C@]1(C)CC2 | 0.215 | 0.57 µM | 0.158 | 0.321 | 0.223 | 0.454 µM | 0.468 | 1.92 | 0.332 | 1.62 µM | 0.667 | 2.92 µM | 0.226 | 0.534 | 0.171 | 0.317 | 0.207 | 0.451 µM |  | 
2 | O=C1c2cccc3c(N4CCOCC4)ccc(c23)C(=O)N1CCN1CCN(CCCCCN2CCN(CCN3C(=O)c4cccc5c(N6CCOCC6)ccc(c45)C3=O)CC2)CC1 | > 100 | > 100 µM |  |  | 46.1 | > 100 µM | > 100 | > 100 | 91 | > 100 µM | > 100 | > 100 µM | > 100 | > 100 | 62.2 | > 100 | > 100 | > 100 µM | 74 | > 100
3 | OC1=CN=C(c2ccccc2)Oc2ccccc21 |  |  |  | > 100 |  | > 100 µM |  | > 100 |  | > 100 µM |  | > 100 µM |  | > 100 |  | > 100 |  | 38.7 µM |  | > 100
4 | CO[C@H]1C(=O)[C@]2(C)[C@@H](OC)C[C@H]3OC[C@@]3(OC(C)=O)[C@H]2[C@H](OC(=O)c2ccccc2)[C@]2(O)C[C@H](OC(=O)[C@H](O)[C@@H](NC(=O)OC(C)(C)C)c3ccccc3)C(C)=C1C2(C)C | < 0.01 | 41.5 µM | < 0.01 | 54.3 | < 0.01 | 0.0103 µM | < 0.01 | > 64.9 | < 0.01 | > 100 µM | < 0.01 | 35.2 µM | < 0.01 | 13 | 12.6 | > 100 |  |  |  | > 63
5 | COc1cc2c(c3c1c(=O)c1ccccc1n3C)C=C([N+](=O)[O-])C(C)(C)O2 |  | > 100 µM |  | > 100 |  |  |  | > 100 |  | > 100 µM |  | > 100 µM |  | 0.108 |  | 0.464 |  | > 100 µM |  | > 48
6 | CCOC(=O)c1cc(C(=O)c2ccc(OC)c(OC)c2)n2c1ccc1ccc3cccnc3c12 | 5.32 | > 100 µM | 0.891 | > 100 |  |  | 5.46 | > 100 | 3.73 | > 100 µM | 4.02 | > 100 µM | 1.58 | > 100 | 2.4 | > 100 |  |  | 25 | > 100
7 | O=c1[nH]c2ccccc2cc1-c1nnc(Cc2ccccc2)o1 |  |  | 1.72 | 3.72 | 3.55 | 13.2 µM | 15.7 | > 100 |  |  | 18.3 | 38.1 µM | 6.63 | 28.3 |  |  |  |  | 4.79 | 24.4
8 | O=C(O)c1ccccc1NCn1nc(-c2ccccc2O)oc1=S | > 100 | > 100 µM | > 100 | > 100 | 49.6 | > 100 µM | 51 | > 100 | > 100 | > 100 µM |  |  | 39.5 | > 100 | 26.9 | 82.8 |  |  | > 100 | > 100
9 | COc1cccc(-c2cc(=O)c3cc(N4CCN(C)CC4)ccc3[nH]2)c1 | 6.24 | > 100 µM |  | > 100 | 2.02 | 3.55 µM and 10.7 µM | 6.99 | > 100 | 1.78 | 4.99 µM and 6.39 µM | 3.84 | 9.29 µM and 87.2 µM |  | > 100 | 3.74 | > 100 | 1.5 | 2.36 µM and 7.13 µM |  | 
10 | C#Cc1cccc(NC(=O)/C=C\C(=O)O)c1 |  | > 100 µM |  | > 100 |  | > 100 µM |  | > 100 |  | > 100 µM |  | > 100 µM |  | > 100 |  | > 100 |  |  |  | > 100
11 | Cc1ccccc1Nc1cc(O)c2c(=O)cc(-c3ccccc3)oc2c1 | > 100 | > 100 µM |  |  |  |  | 2.11 | > 100 | 3.61 | > 100 µM | 5.56 | > 100 µM | 2.89 | > 100 | 4.25 | > 100 | 3.1 | > 100 µM |  | 
12 | CC(C)(C)OC(=O)N[C@H]1CC(=O)c2ccccc2N(CC(=O)O)C1=O |  |  |  | > 100 |  | > 100 µM |  | > 100 |  | > 100 µM |  | > 100 µM |  | > 100 |  | > 100 |  | > 100 µM |  | > 100
13 | CCOC(=O)[C@@H](C)C[C@H](Cc1ccccc1)NC(=O)c1csc([C@@H](C[C@H](C(C)C)N(C)C(=O)CNC(=O)[C@H]2CCCCN2C)OC(C)=O)n1 | 3.58 | > 14.3 µM | 5.07 | > 14.3 | 0.483 | 3.64 µM | 3.49 | > 14.3 | 2.84 | > 14.3 µM | 0.835 | > 14.3 µM | 0.612 | > 6.66 | 0.837 | > 14.3 | 1.74 | 5.46 µM |  | 
14 | CCOC(=O)C1C(c2ccc(Br)cc2)N(Cc2ccccc2)C(c2ccc(Br)cc2)C(C(=O)OC)S1(=O)=O (stereo not drawn) |  | > 100 µM |  | > 100 |  | > 100 µM |  | > 100 |  | 84.6 µM |  | > 100 µM |  | > 100 |  | > 100 |  |  |  | > 100
15 | Cc1nc2ccncc2[nH]1 |  | > 100 µM |  | > 100 |  | > 100 µM |  | > 100 |  | > 100 µM |  |  |  | > 100 |  | > 100 |  | > 100 µM |  | > 100
16 | COc1ccc([C@@]23Oc4cc(OC)cc(OC)c4[C@]2(O)[C@H](O)[C@H](C(=O)N(C)C)[C@H]3c2ccccc2)cc1 | 0.0116 | 0.0626 µM and 0.0694 µM and 0.0417 µM | 0.0214 |  |  | 0.0197 µM |  |  | 0.0208 | 0.244 µM and 0.236 µM and 0.488 µM | 0.0157 |  |  |  |  |  |  | 0.00512 µM and 0.0154 µM | 0.0309 | 
